Source: publication PMC11316111, “Mechanism of allosteric inhibition of human p97/VCP ATPase and its disease mutant by triazole inhibitors” (Communications Chemistry, 2024)
Where “and” joins values, the source holds several entries; their conditions need not be identical. Equal entries are not always repeated. Where two headings read alike, the source gives them in different places.

How the values were obtained:
[1] = system: HCT116 p97P510S; test: Cellular viability, resistant HCT116 p97P510S; type: cell-based
Procedure: (§1) Drug-resistant HCT116 cell lines were derived using the method previously described and with certain modifications[70],[99]. […] Drug-resistant clones were transferred into a new plate for passaging, and subsequently used to study drug resistance and identify the p97 mutations.
(§2) Anti-proliferative activity was measured using CellTiter Glo® Luminescent Cell Viability Assay (Promega G7572) according to the manufacturer’s procedure as described. RMPI1640 containing 5% FBS and 1% penicillin-streptomycin was used as a cell viability medium. A standard curve of HCT116 was generated for finding the linear relationship between the relative luminescence unit and the number of viable cells. […] 24 h after seeding, 8 μL of media containing 5% DMSO was added to each well, and the plate was incubated for an additional 48 h. To test the anti-proliferative activity of p97 inhibitors, we seeded HCT116 at 750 cells per well according to the linear range. […] After 48 h of treatment, cell viability was measured by adding CellTiter Glo reagent and reading the signal with a BioTek Synergy Neo plate reader (Agilent, Santa Clara, CA). The IC50 values were calculated from four replicates using the percentage of growth of treated cells versus the DMSO control. The results were analyzed using GraphPad Prism 7.0 (GraphPad, Boston, MA).

[2] = system: HCT116 p97F618S; test: Cellular viability, resistant HCT116 p97F618S; type: cell-based
Procedure: as §1, §2

[3] = system: HCT116 p97K512N; test: Cellular viability, resistant HCT116 p97K512N; type: cell-based
Procedure: as §1, §2

[4] = system: Ub^G76V-GFP/ODD-Luc HeLa cells; test: Cellular Ub^G76V-GFP accumulation assay; type: cell-based; details: Table S3, four replicates, read-out: UbG76V-GFP EC50
Procedure: ImageXpress high-content confocal microscope (Molecular Devices, LLC., San Jose, CA) was used to image cells at GFP channel. The percentage of Ub^G76V-GFP accumulation (%Acc) is calculated using the following formula: […]
The IC50 values were calculated by fitting the %Acc from four replicates with various concentrations of compounds using GraphPad Prism 7.0 (GraphPad, Boston, MA).

[5] = system: HCT116 p97WT; test: HCT116 proliferation assay (CellTiter Glo); type: cell-based; parameters: key to cellular viability of HCT116: % of DMSO control viability; details: for cellular viability of HCT116 / viability at 0.06 µM / viability at 0.17 µM / viability at 0.52 µM / viability at 1.6 µM / viability at 4.7 µM / viability at 14 µM / viability at 42.1 µM: single replicates; for viability at 0.06 µM: HCT-116, 0.06 µM; for viability at 0.06 µM / viability at 0.17 µM / viability at 0.52 µM / viability at 1.6 µM / viability at 4.7 µM / viability at 14 µM / viability at 42.1 µM: read-out: cellular viability of HCT116; for viability at 0.17 µM: HCT-116, 0.17 µM; for viability at 0.52 µM: HCT-116, 0.52 µM; for viability at 1.6 µM: HCT-116, 1.60 µM; for viability at 4.7 µM: HCT-116, 4.70 µM; for viability at 14 µM: HCT-116, 14.0 µM; for viability at 42.1 µM: HCT-116, 42.1 µM
Procedure: as §2

[6] = target: T1, wild-type p97 (p97^WT) (Homo sapiens, UniProt P55072); test: p97 ATPase activity (Biomol Green), wild-type p97; type: biochemical; details: for IC50: 200 μM ATP, six replicates; for Ratio of IC50 values for mutants to IC50 values for wild-type p97, WT: WT/WT reference
T1 construct: made in house
Procedure: (§3) Results were calculated from 6 replicates using GraphPad Prism 7.0 (GraphPad Software, Boston, MA).

[7] = target: T2, p97^P510S (Homo sapiens, UniProt P55072, P510S); test: p97 ATPase activity (Biomol Green), P510S mutant; type: biochemical; details: for IC50: 200 μM ATP, six replicates; for Ratio of IC50 values for mutants to IC50 values for wild-type p97, P510S: P510S/WT
T2 construct: made in house
Procedure: as §3

[8] = target: T3, p97^R155H (Homo sapiens, UniProt P55072, R155H); test: p97 ATPase activity (Biomol Green), R155H mutant; type: biochemical; details: for IC50: 200 μM ATP, six replicates; for Ratio of IC50 values for mutants to IC50 values for wild-type p97, R155H: R155H/WT
T3 construct: enabling us to acquire high-resolution biomolecular structures of full-length p97; made in house
Procedure: as §3

[9] = target: T4, p97^F618S (Homo sapiens, UniProt P55072, F618S); test: p97 ATPase activity (Biomol Green), F618S mutant; type: biochemical; details: for IC50: 200 μM ATP, six replicates; for Ratio of IC50 values for mutants to IC50 values for wild-type p97, F618S: F618S/WT
T4 construct: made in house
Procedure: as §3

[10] = target: T5, p97^N616F (Homo sapiens, UniProt P55072, N616F); test: p97 ATPase activity (Biomol Green), N616F mutant; type: biochemical; details: for IC50: 200 μM ATP, six replicates; for Ratio of IC50 values for mutants to IC50 values for wild-type p97, N616F: N616F/WT
T5 construct: made in house
Procedure: as §3

[11] = target: T6, p97^K512N (Homo sapiens, UniProt P55072, K512N); test: p97 ATPase activity (Biomol Green), K512N mutant; type: biochemical; details: for IC50: 200 μM ATP, six replicates; for Ratio of IC50 values for mutants to IC50 values for wild-type p97, K512N: K512N/WT
T6 construct: made in house
Procedure: as §3

[12] = target: T1, wild-type p97 (p97^WT); parameters: method as in PMID 26822609; details: read-out: IC50 (p97 ATPase); cited from earlier work
[13] = Homo sapiens, HCT-116, Table S3, four replicates
[14] = Homo sapiens, HCT-116, Table S6, 48-hour treatment, read-out: Cell viability of HCT116 IC50
[15] = Homo sapiens, HCT-116, Table S3, cellular viability, four replicates, read-out: IC50 HCT116 p97WT

T1 sequence (P55072 whole entry): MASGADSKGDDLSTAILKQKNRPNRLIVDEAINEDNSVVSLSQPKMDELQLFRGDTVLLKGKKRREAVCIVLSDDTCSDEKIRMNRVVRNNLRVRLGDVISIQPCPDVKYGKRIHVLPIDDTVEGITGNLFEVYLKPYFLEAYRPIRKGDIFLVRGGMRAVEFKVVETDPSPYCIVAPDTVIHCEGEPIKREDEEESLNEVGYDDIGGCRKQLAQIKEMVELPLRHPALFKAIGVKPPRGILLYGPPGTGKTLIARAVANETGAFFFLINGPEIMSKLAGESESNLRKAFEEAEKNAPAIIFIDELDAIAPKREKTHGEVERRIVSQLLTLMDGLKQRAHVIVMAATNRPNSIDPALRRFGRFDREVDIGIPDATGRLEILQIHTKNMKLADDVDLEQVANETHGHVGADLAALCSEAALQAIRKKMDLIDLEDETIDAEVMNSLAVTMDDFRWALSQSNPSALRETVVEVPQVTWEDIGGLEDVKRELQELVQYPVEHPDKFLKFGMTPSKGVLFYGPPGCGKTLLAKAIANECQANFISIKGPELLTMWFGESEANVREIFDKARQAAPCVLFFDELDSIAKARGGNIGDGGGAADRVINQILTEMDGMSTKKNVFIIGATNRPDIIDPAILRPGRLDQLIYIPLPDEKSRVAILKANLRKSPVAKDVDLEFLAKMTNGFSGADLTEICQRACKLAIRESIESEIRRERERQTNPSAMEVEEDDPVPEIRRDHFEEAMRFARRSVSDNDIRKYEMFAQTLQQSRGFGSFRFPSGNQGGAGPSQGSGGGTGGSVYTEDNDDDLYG
T5 sequence (P55072 whole entry N616F): as the sequence (P55072 whole entry) above, with N616F counted along it
T6 sequence (P55072 whole entry K512N): as the sequence (P55072 whole entry) above, with K512N counted along it
T2 sequence (P55072 whole entry P510S): as the sequence (P55072 whole entry) above, with P510S counted along it
T4 sequence (P55072 whole entry F618S): as the sequence (P55072 whole entry) above, with F618S counted along it
T3 sequence (P55072 whole entry R155H): as the sequence (P55072 whole entry) above, with R155H counted along it

SMILES	IC50 [1, 13]	EC50 ([4]; Homo sapiens, HeLa)	IC50 [5, 14]	IC50 [5, 15]	% ATPase activity ([6]; inhibitor 0.000905 µM)	% ATPase activity ([6]; inhibitor 0.002716 µM)	% ATPase activity ([6]; inhibitor 0.008148 µM)	% ATPase activity ([6]; inhibitor 0.024444 µM)	% ATPase activity ([6]; inhibitor 0.073333 µM)	% ATPase activity ([6]; inhibitor 0.220000 µM)	increase of IC50 versus p97^WT, P510S [7]	IC50 [7]	Ratio of IC50 values for mutants to IC50 values for wild-type p97, P510S [7]	IC50 [8]	Ratio of IC50 values for mutants to IC50 values for wild-type p97, R155H [8]	increase of IC50 versus p97^WT, F618S [9]	IC50 [9]	IC50 [6]	Ratio of IC50 values for mutants to IC50 values for wild-type p97, WT [6]	increase of IC50 versus p97^WT, N616F [10]	also measured
Cc1cc2c(C(N)=O)cccc2n1-c1nc2c(c(NCc3ccccc3)n1)COCC2 [CB-5083, 1-[4-(benzylamino)-5H,7H,8H-pyrano[3d,[4]]pyrimidin-2-yl]-2-methyl-1H-indole-4-carboxamide, reference compound]	1000 nM	430 nM	344 nM	–	–	–	–	–	–	–	–	–	–	–	–	–	–	–	–	–	IC50 [2, 13]: 600 nM; IC50 [3, 13]: 500 nM; IC50 ([5]; Homo sapiens, HCT-116, read-out: IC50 HCT116 p97WT): 400 nM
CC(C)N1CCN(CCNC2CCN(c3cccc(-c4cc5cc(F)ccc5[nH]4)c3)CC2)CC1 [UPCDC30245]	–	–	–	–	–	–	–	–	–	–	–	–	–	–	–	–	–	–	–	–	IC50 [12]: 27 nM
CC1CCCC(C)N1CCOc1cc([N+](=O)[O-])ccc1C#N (centres unmarked) [UPCDC30733]	–	–	–	–	–	–	–	–	–	–	–	–	–	–	–	–	–	–	–	–	IC50 ([1]; Table S3, four replicates): 9600 nM; IC50 ([2]; Table S3, four replicates): 21000 nM; IC50 ([3]; Table S3, four replicates): 25000 nM; EC50 [4]: 530 nM; IC50 ([5]; Table S3, cellular viability, four replicates, read-out: IC50 HCT116 p97WT): 680 nM
CN1CCC(NC(=O)OCC#Cc2cc(F)c(OCc3nnc(S[C@H]4C=CCCC4)n3-c3cccnc3)cc2F)CC1 [UPCDC30766]	10300 nM	270 nM	296 nM	290 nM	–	–	–	–	–	–	–	–	–	–	–	–	–	–	–	–	IC50 [3, 13]: 7300 nM; cellular viability of HCT116 ([5]; 0.06 µM): 99 and 98 and 101; cellular viability of HCT116 ([5]; 0.17 µM): 95 and 90; cellular viability of HCT116 ([5]; 0.52 µM): 6; cellular viability of HCT116 ([5]; 14.0 µM): 3; cellular viability of HCT116 ([5]; 42.1 µM): 1; viability at 0.06 µM ([5]; Homo sapiens): 94%; viability at 0.17 µM ([5]; Homo sapiens): 97%; viability at 0.52 µM ([5]; Homo sapiens): 5%; viability at 1.6 µM ([5]; Homo sapiens): 4%; viability at 4.7 µM ([5]; Homo sapiens): 5%; viability at 14 µM ([5]; Homo sapiens): 4%; viability at 42.1 µM ([5]; Homo sapiens): 2%

Continued, in another order:

IC50 [1, 13]	EC50 ([4]; Homo sapiens, HeLa)	IC50 [5, 14]	IC50 [5, 15]	% ATPase activity ([6]; inhibitor 0.000905 µM)	% ATPase activity ([6]; inhibitor 0.002716 µM)	% ATPase activity ([6]; inhibitor 0.008148 µM)	% ATPase activity ([6]; inhibitor 0.024444 µM)	% ATPase activity ([6]; inhibitor 0.073333 µM)	% ATPase activity ([6]; inhibitor 0.220000 µM)	increase of IC50 versus p97^WT, P510S [7]	IC50 [7]	Ratio of IC50 values for mutants to IC50 values for wild-type p97, P510S [7]	IC50 [8]	Ratio of IC50 values for mutants to IC50 values for wild-type p97, R155H [8]	increase of IC50 versus p97^WT, F618S [9]	IC50 [9]	IC50 [6]	Ratio of IC50 values for mutants to IC50 values for wild-type p97, WT [6]	increase of IC50 versus p97^WT, N616F [10]	SMILES	also measured
9200 nM	2000 nM	–	2000 nM	106%	98%	88%	55%	28%	14%	–	–	–	–	–	–	–	–	–	–	Cc1cc(OCc2nnc(SC3CCCC3)n2-c2cccnc2)ccc1-c1ccc(S(C)(=O)=O)cc1 [NMS-873, reference compound]	–
6900 nM	230 nM	296 nM	390 nM	98%	90%	67%	27%	15%	16%	61 fold	910 nM	61	11 nM	0.7	31 fold	460 nM	15 nM	1	121 fold	CN1CCC(NC(=O)OCC#Cc2c(F)cc(OCc3nnc(S[C@H]4C=CCCC4)n3-c3cccnc3)cc2F)CC1 [NSC799462]	Ratio of IC50 values for mutants to IC50 values for wild-type p97, F618S [9]: 31; cellular viability of HCT116 ([5]; 0.06 µM): 105 (2×) and 108; cellular viability of HCT116 ([5]; 0.17 µM): 93 (2×) and 96; cellular viability of HCT116 ([5]; 1.60 µM, 1.6 µM): 4; cellular viability of HCT116 ([5]; 42.1 µM): 1; viability at 0.06 µM ([5]; Homo sapiens): 100%; viability at 0.17 µM ([5]; Homo sapiens): 94%; viability at 0.52 µM ([5]; Homo sapiens): 6%; viability at 1.6 µM ([5]; Homo sapiens): 5%; viability at 4.7 µM ([5]; Homo sapiens): 5%; viability at 14 µM ([5]; Homo sapiens): 5%; viability at 42.1 µM ([5]; Homo sapiens): 2%; IC50 [10]: 1810 nM; Ratio of IC50 values for mutants to IC50 values for wild-type p97, N616F [10]: 121; increase of IC50 versus p97^WT, K512N [11]: 3 fold; IC50 [11]: 45 nM; Ratio of IC50 values for mutants to IC50 values for wild-type p97, K512N [11]: 3
–	870 nM	–	750 nM	99%	92%	72%	32%	16%	12%	more than 30 fold	2320 nM	155	14 nM	0.9	more than 30 fold	1750 nM	15 nM	1	more than 30 fold	CCC(=O)NCC#Cc1cc(F)c(OCc2nnc(S[C@H]3C=CCCC3)n2-c2cccnc2)cc1F [NSC804515]	IC50 [10]: > 6600 nM; Ratio of IC50 values for mutants to IC50 values for wild-type p97, N616F [10]: > 440; increase of IC50 versus p97^WT, K512N [11]: 12 fold; IC50 [11]: 180 nM; Ratio of IC50 values for mutants to IC50 values for wild-type p97, K512N [11]: 12
–	660 nM	–	830 nM	102%	90%	71%	31%	23%	14%	more than 30 fold	2800 nM	175	15 nM	0.9	more than 30 fold	1510 nM	16 nM	1	more than 30 fold	C[C@@H]1CN(C(=O)Cn2ncc(-c3cc(F)c(OCc4nnc(S[C@H]5C=CCCC5)n4-c4cccnc4)cc3F)n2)C[C@H](C)O1 [NSC819701]	Ratio of IC50 values for mutants to IC50 values for wild-type p97, F618S [9]: 94; IC50 [10]: 5340 nM; Ratio of IC50 values for mutants to IC50 values for wild-type p97, N616F [10]: 334; increase of IC50 versus p97^WT, K512N [11]: 7.5 fold; IC50 [11]: 120 nM; Ratio of IC50 values for mutants to IC50 values for wild-type p97, K512N [11]: 7.5
